Earlier results, collected in patent publication US9314429B2, “Rapidly dispersible dosage form of oxcarbazepine” (APRECIA PHARMACEUTICALS COMPANY, priority 2013, dated 2016).

For `NC(=O)N1c2ccccc2CC(=O)c2ccccc21` [OXC, 10,11-Dihydro-10-oxo-5H-dibenz[b,f]azepine-5-carboxamide], the water solubility is given as “poorly water soluble”.
